PMC9096754 (Scientific Reports, 2022)
Where two headings read alike, the source gives them in different places. One block for each compound: values may come before it.

What was measured:
human PDE10A2 = molecular target: T1, human PDE10A2 (Homo sapiens, UniProt Q9Y233); assay: Phosphodiesterase 10A2 (PDE10A2) enzymatic assay (Eurofins Cerep 4080); format: biochemical
T1 construct: purchased Eurofins (Cerep), fee-for-service 4080; host or cells: Sf9
Method: In vitro characterization was performed on a fee-for-service basis at Eurofins (www.eurofins.com) if the assay was commercially available.
Additional details on the conduct of in vitro assays are included in Supplementary Information S1.
The IC50 value and the standard error of the mean (SEM) were determined by a non-linear, least squares regression analysis using GraphPad Prism Version 9.0.2 for Macintosh (GraphPad Software, San Diego, California USA, https://www.graphpad.com). The dose–response curve was plotted using RStudio Team (2020), v. 1.3.1073 (RStudio, PBC, Boston, MA, http://www.rstudio.com/). […]
(§1) formation of 5’AMP from cAMP using human recombinant enzyme e xpressed in Sf9 cells.
(§2) The test compound was added to a buffer containing 40 mM Tris/HCl (pH 7. 4), 8 mM MgCl2, and 0. 2 µM [3H]cAMP + cAMP. Thereafter, enzyme (about 0. 8 U) wa s added and the mixture incubated for 20 minutes at 25 °C. SPA beads were added and the mixture was maintained at 25 °C for 30 minutes under shaking. [3H]5’AMP was quantified via scintillation counting. The […]
used as standard inhibitory reference compound. A primary screening in duplicated was carried out (30 µM) to determine the target activity.
(100 µM highest concentration and dilution factor in a log-scale) in triplicate for dose-respons e

human AA2AR = molecular target: T2, human AA2AR (Homo sapiens, UniProt P29274); assay: Adenosine A2A receptor (AA2AR) calcium flux assay in RBL-2H3 cells (Eurofins Cerep 86-0011P-2409AN); format: cell-based; conditions: top 30 μM, active if IC50 lower than 30 μM
T2 construct: host or cells: RBL-2H3

[1] = molecular target: T3, Epidermal growth factor receptor (EGFR) (Homo sapiens, UniProt P00533); assay: Epidermal Growth Factor Receptor (EGFR) enzymatic radiometric assay (Eurofins Cerep 14-531KP); format: biochemical
T3 construct: purchased Eurofins (Cerep), fee-for-service 14-531KP
T3 sequence (P00533 25-1210): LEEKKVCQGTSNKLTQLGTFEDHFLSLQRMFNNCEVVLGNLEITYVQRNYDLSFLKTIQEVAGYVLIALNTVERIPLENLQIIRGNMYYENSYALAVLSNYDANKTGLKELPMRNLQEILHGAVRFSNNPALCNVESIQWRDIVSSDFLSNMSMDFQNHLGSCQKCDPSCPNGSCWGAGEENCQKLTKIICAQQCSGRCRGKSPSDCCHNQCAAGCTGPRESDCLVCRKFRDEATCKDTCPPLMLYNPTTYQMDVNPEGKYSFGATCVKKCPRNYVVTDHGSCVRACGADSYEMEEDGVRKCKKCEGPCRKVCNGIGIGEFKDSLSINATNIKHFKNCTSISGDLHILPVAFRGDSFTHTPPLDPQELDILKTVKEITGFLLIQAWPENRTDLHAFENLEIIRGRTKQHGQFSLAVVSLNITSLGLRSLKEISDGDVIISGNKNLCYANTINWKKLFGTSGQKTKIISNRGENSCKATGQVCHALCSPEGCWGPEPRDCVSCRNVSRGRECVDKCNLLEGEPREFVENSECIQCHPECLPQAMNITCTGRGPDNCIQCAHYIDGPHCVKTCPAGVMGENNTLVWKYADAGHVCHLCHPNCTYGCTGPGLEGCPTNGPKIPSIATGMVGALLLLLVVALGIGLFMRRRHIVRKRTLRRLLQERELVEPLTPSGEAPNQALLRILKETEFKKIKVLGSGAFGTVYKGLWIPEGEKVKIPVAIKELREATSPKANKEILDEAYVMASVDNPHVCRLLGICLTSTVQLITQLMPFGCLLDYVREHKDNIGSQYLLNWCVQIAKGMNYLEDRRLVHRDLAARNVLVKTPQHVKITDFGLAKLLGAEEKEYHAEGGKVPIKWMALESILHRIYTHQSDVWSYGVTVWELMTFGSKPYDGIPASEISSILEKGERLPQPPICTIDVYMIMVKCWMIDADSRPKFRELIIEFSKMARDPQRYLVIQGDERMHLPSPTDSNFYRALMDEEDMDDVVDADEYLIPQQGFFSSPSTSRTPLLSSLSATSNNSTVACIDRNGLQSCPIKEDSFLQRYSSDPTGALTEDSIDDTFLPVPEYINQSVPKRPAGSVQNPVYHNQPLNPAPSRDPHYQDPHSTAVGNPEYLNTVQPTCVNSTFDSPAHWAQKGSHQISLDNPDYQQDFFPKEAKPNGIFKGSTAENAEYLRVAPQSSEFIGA

PKN2 (human) = PKN2 (human) (Homo sapiens, UniProt Q16513); assay: biochemical
PKN2 (human), sequence (Q16513 whole entry): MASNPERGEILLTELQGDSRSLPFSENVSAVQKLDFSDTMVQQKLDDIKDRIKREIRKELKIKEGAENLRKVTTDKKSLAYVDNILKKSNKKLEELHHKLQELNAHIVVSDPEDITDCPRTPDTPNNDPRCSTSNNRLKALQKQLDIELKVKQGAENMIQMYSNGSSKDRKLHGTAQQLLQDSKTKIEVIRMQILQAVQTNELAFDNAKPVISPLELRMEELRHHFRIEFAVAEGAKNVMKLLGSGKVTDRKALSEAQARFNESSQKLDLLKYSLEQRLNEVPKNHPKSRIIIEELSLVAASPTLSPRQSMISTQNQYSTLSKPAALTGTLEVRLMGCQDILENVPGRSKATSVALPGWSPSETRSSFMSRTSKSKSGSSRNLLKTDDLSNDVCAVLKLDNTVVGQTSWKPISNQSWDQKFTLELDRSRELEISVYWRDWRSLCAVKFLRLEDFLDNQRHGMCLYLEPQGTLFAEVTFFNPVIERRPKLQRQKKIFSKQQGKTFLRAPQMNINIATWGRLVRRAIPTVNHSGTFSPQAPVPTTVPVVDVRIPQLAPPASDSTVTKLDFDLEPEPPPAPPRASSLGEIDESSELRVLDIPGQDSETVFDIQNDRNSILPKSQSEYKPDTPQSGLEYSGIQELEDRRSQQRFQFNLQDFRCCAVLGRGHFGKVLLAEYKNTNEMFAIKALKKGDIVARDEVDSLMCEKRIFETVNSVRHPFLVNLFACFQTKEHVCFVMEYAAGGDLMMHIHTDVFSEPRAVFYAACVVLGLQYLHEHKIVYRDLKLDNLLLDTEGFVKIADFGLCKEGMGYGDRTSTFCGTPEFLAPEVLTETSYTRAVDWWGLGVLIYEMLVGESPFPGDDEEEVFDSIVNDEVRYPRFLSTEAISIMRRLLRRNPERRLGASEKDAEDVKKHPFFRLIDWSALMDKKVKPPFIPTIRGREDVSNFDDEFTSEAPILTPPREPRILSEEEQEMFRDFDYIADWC

Mouse recombinant iNOS = molecular target: T4, Mouse recombinant iNOS (Mus musculus, UniProt P29477); assay: Inducible NOS (iNOS) enzymatic assay (Eurofins Cerep 3185); format: biochemical
T4 construct: purchased Eurofins (Cerep), fee-for-service 3185; host or cells: Escherichia coli
Method: In vitro characterization was performed on a fee-for-service basis at Eurofins (www.eurofins.com) if the assay was commercially available. […] DTT) to remove unbound ligand and to reduce nonspecific binding. […] The analysis was carried on in polypropylene 384-well plates incubated at 25 °C with shaking for 1 h in a final volume of 20 μL. […] The kinase concentration in the eluates was measured by qPCR. […] The mixture was incubated for 90 minutes at 37 °C, followed by the addition of Griess reagent. The binding was determined by photometry at 545 nm. […] was used as reference compound. […] A primary screening in duplicated was carried out (30 μM) to determine the target activity. […] The reaction was initiated by the addition of the Mg/ATP mixture. Afte r incubation for 30 minutes at 25 °C, the reaction was terminated by the addition of a solution containing EDTA and biotinylated phosphatidylinositol - 3,4,5-trisphosphate. Detection buffer containing europium -labelled anti - GST monoclonal antibody, GST -tagged GRP1 PH domain and streptavidin -allophycocyanin was added. Following, the plate was read in time-resolved fluorescence mode and the homogeneous time -resolved fluorescence (HTRF) signal was determined according to the formula HTRF = 10000 x (Em665 nm/Em6 20 nm). PI-103 was used as reference compound. […] The binding was determined by Spectrofluorimetric quantitation of rhodamine 123 (Excitation: 485 nm, Emission: 535 nm). 2 -TEDC was used as a reference compound. A primary screening in duplicated was carried out (30 μM) to determine the target S4

PI3 Kinase (p110b/p85a) = molecular target: T5, PI3 Kinase (p110b/p85a) (Homo sapiens, UniProt P42338); assay: PI3 Kinase (p110b/p85a) enzymatic HTRF assay (Eurofins Cerep 14-603KP); format: biochemical; conditions: for remaining activity at 30 µM: % kinase activity remaining
T5 construct: purchased Eurofins (Cerep), fee-for-service 14-603KP
T5 sequence (P42338 whole entry): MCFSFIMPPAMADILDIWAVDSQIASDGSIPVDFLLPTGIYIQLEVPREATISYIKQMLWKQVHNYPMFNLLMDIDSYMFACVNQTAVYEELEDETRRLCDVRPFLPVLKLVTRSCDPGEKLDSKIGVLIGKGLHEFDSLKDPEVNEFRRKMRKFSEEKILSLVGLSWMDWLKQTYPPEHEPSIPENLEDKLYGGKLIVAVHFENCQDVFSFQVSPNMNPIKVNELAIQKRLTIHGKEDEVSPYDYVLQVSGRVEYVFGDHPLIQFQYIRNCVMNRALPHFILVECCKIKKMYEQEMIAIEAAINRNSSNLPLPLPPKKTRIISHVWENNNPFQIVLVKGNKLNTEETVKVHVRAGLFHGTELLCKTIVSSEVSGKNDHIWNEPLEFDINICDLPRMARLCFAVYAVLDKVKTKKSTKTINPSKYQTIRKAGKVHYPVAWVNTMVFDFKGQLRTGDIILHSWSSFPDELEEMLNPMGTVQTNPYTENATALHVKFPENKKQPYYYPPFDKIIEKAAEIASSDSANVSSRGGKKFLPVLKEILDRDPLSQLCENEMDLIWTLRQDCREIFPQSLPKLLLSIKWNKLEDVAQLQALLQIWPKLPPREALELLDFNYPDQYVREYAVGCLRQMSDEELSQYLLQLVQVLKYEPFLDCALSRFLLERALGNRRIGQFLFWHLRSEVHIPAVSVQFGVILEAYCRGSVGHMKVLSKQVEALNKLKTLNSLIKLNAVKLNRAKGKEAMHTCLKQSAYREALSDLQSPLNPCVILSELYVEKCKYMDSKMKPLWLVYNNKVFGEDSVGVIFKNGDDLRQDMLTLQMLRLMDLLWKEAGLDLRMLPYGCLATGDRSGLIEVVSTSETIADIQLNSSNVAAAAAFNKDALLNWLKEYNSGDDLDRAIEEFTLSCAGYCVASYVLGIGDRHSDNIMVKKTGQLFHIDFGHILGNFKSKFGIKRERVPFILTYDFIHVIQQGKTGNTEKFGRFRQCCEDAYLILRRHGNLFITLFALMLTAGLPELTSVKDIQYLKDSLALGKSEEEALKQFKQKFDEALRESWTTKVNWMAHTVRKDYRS
T5 sequence (P27986 whole entry partner): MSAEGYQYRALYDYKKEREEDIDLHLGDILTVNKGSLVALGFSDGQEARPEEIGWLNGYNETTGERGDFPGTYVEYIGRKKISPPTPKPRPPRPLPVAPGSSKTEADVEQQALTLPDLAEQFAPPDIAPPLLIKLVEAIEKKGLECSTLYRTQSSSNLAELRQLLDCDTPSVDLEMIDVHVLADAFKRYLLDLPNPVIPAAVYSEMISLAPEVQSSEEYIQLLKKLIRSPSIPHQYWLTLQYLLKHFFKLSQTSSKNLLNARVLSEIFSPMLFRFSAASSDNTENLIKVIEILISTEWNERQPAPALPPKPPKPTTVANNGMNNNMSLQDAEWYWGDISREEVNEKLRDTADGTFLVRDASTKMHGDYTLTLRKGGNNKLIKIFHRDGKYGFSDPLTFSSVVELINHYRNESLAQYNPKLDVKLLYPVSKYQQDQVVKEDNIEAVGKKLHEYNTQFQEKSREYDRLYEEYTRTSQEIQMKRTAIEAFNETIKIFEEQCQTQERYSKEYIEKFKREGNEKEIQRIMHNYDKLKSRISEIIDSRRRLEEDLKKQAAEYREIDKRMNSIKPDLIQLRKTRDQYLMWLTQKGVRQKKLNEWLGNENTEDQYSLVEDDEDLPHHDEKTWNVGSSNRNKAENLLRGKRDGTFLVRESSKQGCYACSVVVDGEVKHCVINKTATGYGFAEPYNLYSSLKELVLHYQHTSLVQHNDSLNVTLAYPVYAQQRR
Method: Additional details on the conduct of in vitro assays are included in Supplementary Information S1. […]
PI3 Kinase (p110b/p85a). The enzyme was incubated in assay buffer containing 10 µM
phosphatidylinositol -4, 5-bispho sphate and Mg/A TP (200 µM). The reaction was initiated by
the addition of the Mg/ATP mixture. Afte r incubation for 30 minutes at 25 °C, the reaction was
terminated by the addition of a solution containing EDTA and biotinylated
phosphatidylinositol - 3,4,5-trisphosphate. Detection buffer containing europium -labelled anti -
GST monoclonal antibody, GST -tagged GRP1 PH domain and streptavidin -allophycocyanin
was added. Following, the plate was read in time-resolved fluorescence mode and the
homogeneous time -resolved fluorescence (HTRF) signal was determined according to the
formula HTRF = 10000 x (Em665 nm/Em6 20 nm). PI-103 was used as reference compound.
A primary screening in duplicated was carried out (30 µM) to determine the target activity. The
result was e xpres sed as a percentage of the positiv e control (i.e. % kinase activity remaining),
and the mean of the replicates was calculated. (Eurofins Cerep assay ID: 14 -603KP) […]
A primary screening in duplicated was carried out (30 µM) to determine the target

[2] = molecular target: T6, Human recombinant 15-ALOX (Homo sapiens, UniProt P16050); assay: Arachidonate 15-lipoxygenase (15-ALOX) enzymatic assay (Eurofins Cerep 199017); format: biochemical
T6 construct: purchased Eurofins (Cerep), fee-for-service 199017; host or cells: E. coli
T6 sequence (P16050 1-662): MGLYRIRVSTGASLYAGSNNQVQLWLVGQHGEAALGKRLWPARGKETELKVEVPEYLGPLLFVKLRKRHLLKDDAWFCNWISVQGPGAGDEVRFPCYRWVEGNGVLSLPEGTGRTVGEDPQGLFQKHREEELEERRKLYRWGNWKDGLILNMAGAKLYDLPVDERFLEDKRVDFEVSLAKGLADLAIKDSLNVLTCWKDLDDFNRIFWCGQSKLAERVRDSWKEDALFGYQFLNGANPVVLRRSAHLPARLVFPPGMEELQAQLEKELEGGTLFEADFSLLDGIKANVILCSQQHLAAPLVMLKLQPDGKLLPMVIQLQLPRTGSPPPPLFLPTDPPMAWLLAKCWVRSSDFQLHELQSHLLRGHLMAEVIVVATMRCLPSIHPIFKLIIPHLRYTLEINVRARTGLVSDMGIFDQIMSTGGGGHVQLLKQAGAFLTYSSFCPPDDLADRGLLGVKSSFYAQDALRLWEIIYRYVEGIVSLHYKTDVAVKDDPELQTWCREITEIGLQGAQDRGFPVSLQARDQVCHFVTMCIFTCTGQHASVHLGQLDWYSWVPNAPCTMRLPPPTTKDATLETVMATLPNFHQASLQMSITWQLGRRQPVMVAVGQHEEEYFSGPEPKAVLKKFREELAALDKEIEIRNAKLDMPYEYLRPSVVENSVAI

human ADORA3 = molecular target: T7, human ADORA3 (Homo sapiens, UniProt P0DMS8); assay: Adenosine A3 receptor (ADORA3) functional cAMP HTRF assay in CHO cells (Eurofins Cerep G107); format: cell-based; conditions: 8 concentrations, top 30 μM, active if IC50 lower than 30 μM
T7 construct: host or cells: CHO
T7 sequence (P0DMS8 1-318): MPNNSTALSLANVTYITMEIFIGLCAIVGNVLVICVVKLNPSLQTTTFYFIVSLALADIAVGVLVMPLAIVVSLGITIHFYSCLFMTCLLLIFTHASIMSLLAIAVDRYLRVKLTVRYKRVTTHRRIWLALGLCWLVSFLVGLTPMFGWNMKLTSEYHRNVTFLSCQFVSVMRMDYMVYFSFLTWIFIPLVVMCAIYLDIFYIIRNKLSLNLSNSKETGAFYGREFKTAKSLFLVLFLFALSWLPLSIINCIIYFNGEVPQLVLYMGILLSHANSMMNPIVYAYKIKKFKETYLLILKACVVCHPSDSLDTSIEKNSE
Method: In vitro characterization was performed on a fee-for-service basis at Eurofins (www.eurofins.com) if the assay was commercially available. […]
tested at 8 concentrations (100 µM a s the highest concentration and dilution factor in a log-scale) in triplicate for dose-response curve and IC50 determination. (Eurofins Cerep assay ID: […]
as §1, §2
used as standard inhibitory reference compound. […]
Functional activity of ADORA3 was evaluated in CHO cells transfected with human […]
(100 nM IB-MECA) in a first assay, and in a second one with […] (10 nM IB -ME CA) for 20 minutes at 37 °C, and formation of cAMP was determined by homogeneous time resolved fluorescence (HTRF) at lex=337 nm and lem=620 and 665 nm using a microplate reader (Envison, Perkin Elmer). The cAMP concentration was determined by dividing the […]
signal measured at 665 nm by that measured at 620 nm (ratio). […]

PDE10A = test system: PDE10A; design: method as in printed at the sentence; conditions: PDE10A inhibitor, papaverine analog; ref not given; cited from earlier work
[3] = tested at 30 μM, active if IC50 lower than 30 μM

T1 sequence (Q9Y233 267-1055): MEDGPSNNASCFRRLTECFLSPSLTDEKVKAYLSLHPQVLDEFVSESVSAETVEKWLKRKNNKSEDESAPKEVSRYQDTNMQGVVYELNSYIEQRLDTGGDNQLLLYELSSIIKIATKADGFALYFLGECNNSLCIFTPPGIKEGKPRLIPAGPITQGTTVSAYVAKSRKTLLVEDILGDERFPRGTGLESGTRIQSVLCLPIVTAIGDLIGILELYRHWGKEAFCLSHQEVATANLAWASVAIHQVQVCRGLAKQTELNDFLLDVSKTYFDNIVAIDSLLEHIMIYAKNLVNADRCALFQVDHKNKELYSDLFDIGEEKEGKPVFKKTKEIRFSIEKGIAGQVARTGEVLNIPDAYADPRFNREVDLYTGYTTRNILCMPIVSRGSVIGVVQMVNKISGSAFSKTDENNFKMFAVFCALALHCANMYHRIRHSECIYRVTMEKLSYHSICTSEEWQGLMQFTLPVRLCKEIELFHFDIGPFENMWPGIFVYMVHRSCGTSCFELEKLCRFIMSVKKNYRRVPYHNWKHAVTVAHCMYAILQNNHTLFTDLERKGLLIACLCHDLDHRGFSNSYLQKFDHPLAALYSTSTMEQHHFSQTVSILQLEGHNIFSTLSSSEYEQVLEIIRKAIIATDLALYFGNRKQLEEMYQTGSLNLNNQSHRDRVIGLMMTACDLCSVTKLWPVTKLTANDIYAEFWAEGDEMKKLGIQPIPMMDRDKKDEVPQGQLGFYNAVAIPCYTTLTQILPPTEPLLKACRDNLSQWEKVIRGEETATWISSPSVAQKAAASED

- inhibition at 30 µM (human PDE10A2; mean of n=2, read-out: % inhibition (mean) activity, PDE10A2): 44.8%
- inhibition at 30 µM (human PDE10A2; replicate 1, read-out: % inhibition of control activity (1st), PDE10A2): 45.5%
- inhibition at 30 µM (human PDE10A2; replicate 2, read-out: % inhibition of control activity (2nd), PDE10A2): 44%
- IC50 (human PDE10A2; dose–response, 8 concentrations, top 100 μM, triplicate, mean ± SEM): 28 ± 2 µM
- Ki (human PDE10A2; estimated from experimental IC50, Cheng and Prusoff): 6.1 µM
- IC50 (μM), AA2AR, antagonistic effect (human AA2AR; antagonistic effect): Inactive
- inhibition at 30 µM ([1]; 30 µM, mean of n=2): 21%
- IC50 (μM), EGFR [1, 3]: Inactive
- inhibition at 30 µM (PKN2 (human); read-out: % inhibition (mean) activity, PRK2): 98%
- remaining activity at 30 µM (PKN2 (human); read-out: % inhibition of control activity (1st), measured as % of positive control activity, PRK2): 1%
- remaining activity at 30 µM (PKN2 (human); read-out: % inhibition of control activity (2nd), measured as % of positive control activity, PRK2): 2%
- inhibition at 30 µM (Mouse recombinant iNOS; mean of n=2, read-out: % inhibition (mean) activity, iNOS): 5%
- inhibition at 30 µM (Mouse recombinant iNOS; replicate 1, read-out: % inhibition of control activity (1st), iNOS): 6%
- inhibition at 30 µM (Mouse recombinant iNOS; replicate 2, read-out: % inhibition of control activity (2nd), iNOS): 4%
- IC50 (μM), iNOS (Mouse recombinant iNOS; [3]): Inactive
- inhibition at 30 µM (PI3 Kinase (p110b/p85a); 30 µM, mean of n=2, read-out: % inhibition (mean) activity, PI3Kbeta (p110b/p85a)): 4%
- remaining activity at 30 µM (PI3 Kinase (p110b/p85a); 30 µM, replicate 1, read-out: % inhibition of control activity (1st), measured as % of positive control activity, PI3Kbeta (p110b/p85a)): 92%
- remaining activity at 30 µM (PI3 Kinase (p110b/p85a); 30 µM, replicate 2, read-out: % inhibition of control activity (2nd), measured as % of positive control activity, PI3Kbeta (p110b/p85a)): 99%
- IC50 (μM), PI3 Kinase (p110b/p85a) (PI3 Kinase (p110b/p85a); [3]): Inactive
SMILES: CCS(=O)(=O)N1CC(CC#N)(n2cc(-c3ncnc4[nH]ccc34)cn2)C1 [Baricitinib]

- IC50 (μM), AA2AR, agonistic effect (human AA2AR; agonistic effect (footnote c)): Inactive
- IC50 (μM), 15-ALOX ([2]; 30 μM screen, follow-up 8 concentrations top 100 μM, triplicate, active if IC50 lower than 30 μM): Inactive
- inhibition at 30 µM ([2]; mean of n=2, read-out: % inhibition (mean) activity, 15-LOX-1): 27%
- inhibition at 30 µM ([2]; replicate 1, read-out: % inhibition of control activity (1st), 15-LOX-1): 19.3%
- inhibition at 30 µM ([2]; replicate 2, read-out: % inhibition of control activity (2nd), 15-LOX-1): 34%
- IC50 (μM), ADORA3, antagonistic and agonistic effect (human ADORA3): Inactive
SMILES: C[C@@H]1CCN(C(=O)CC#N)C[C@@H]1N(C)c1ncnc2[nH]ccc12 [Tofacitinib]

SMILES: COc1cc2ncnc(N3CC[C@@H](Oc4cnc5ccccc5n4)C3)c2cc1OC [PQ-10]
- IC50 (PDE10A): 6 µM
